# ChEMBL document CHEMBL1150386 (J Med Chem, 2008)
# pIC50, pKd, pKi: −log10 of the molar value.
# How the values were obtained:
# [1] = target: T1, Acetylcholinesterase (Mus musculus, UniProt P21836)
# T1 sequence (P21836 whole entry): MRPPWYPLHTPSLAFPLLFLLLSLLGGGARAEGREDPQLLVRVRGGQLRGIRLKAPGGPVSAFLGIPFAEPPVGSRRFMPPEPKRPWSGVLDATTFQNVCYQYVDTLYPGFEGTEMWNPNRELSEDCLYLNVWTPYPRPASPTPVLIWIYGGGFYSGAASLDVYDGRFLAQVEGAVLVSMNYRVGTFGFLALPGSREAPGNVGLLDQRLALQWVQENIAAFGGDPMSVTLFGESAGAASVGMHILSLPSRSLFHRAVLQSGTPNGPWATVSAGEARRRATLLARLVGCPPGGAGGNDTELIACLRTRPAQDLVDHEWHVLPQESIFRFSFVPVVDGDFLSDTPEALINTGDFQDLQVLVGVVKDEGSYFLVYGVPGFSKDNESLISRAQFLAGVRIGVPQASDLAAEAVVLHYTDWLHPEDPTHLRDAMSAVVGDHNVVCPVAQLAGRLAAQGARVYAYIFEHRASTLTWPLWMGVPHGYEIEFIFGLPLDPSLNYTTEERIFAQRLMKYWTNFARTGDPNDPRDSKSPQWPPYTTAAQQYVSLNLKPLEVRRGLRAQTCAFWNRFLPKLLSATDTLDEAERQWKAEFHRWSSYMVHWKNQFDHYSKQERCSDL
# Description: Binding affinity to mouse AChE by equilibrium binding assay
# [2] = target: T1, Acetylcholinesterase; remark: listed apart in the source
# Description: Binding affinity to mouse AChE
# [3] = target: T2, Acetylcholinesterase (Rattus norvegicus, UniProt P37136)
# T2 sequence (P37136 whole entry): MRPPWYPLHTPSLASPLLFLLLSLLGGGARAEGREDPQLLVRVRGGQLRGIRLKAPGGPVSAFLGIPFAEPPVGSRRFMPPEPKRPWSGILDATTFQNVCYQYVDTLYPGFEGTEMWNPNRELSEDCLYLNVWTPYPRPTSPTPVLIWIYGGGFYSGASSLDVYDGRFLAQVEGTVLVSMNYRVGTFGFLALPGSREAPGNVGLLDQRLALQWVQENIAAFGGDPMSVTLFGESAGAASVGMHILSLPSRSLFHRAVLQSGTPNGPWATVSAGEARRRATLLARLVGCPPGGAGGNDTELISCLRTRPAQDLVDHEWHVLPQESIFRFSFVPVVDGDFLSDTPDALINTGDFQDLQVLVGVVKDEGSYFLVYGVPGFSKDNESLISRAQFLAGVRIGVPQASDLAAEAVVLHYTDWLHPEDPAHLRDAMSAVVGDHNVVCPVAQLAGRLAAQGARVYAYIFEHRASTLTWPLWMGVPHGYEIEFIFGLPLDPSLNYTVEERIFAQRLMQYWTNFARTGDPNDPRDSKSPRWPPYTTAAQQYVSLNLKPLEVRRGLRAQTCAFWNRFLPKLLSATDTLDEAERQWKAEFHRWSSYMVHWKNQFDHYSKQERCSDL
# [4] = target: Butyrylcholinesterase (Rattus norvegicus, UniProt Q9JKC1)
# [5] = target: T3, Acetylcholinesterase (Bos taurus, UniProt P23795); assay: Inhibition of bovine AChE
# T3 sequence (P23795 whole entry): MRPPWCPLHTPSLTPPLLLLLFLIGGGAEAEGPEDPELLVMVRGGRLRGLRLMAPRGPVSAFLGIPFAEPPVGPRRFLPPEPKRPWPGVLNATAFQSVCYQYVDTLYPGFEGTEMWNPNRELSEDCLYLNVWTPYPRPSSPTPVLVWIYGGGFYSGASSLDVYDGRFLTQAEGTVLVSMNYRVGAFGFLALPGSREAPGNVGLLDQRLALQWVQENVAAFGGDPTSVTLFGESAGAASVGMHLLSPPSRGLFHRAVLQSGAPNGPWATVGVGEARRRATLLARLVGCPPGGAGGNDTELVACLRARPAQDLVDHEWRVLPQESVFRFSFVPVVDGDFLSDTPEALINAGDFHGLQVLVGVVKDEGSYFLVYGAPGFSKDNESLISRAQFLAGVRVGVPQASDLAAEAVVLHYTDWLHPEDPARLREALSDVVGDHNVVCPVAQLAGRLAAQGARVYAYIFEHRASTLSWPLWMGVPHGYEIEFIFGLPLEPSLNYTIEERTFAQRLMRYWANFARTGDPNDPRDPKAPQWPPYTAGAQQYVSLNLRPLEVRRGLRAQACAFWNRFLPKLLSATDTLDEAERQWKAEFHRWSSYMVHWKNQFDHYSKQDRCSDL
# [6] = target: Cholinesterase (Equus caballus, UniProt P81908); assay: Inhibition of horse BuChE
# [7] = target: Cholinesterase (Mus musculus, UniProt Q03311)
# Description: Inhibition of mouse BuChE
# [8] = target: T4, Acetylcholinesterase (Torpedo californica, UniProt P04058); assay: Inhibition of Torpedo californica AChE assessed as carbamylation; parameters: species or system Tetronarce californica
# [9] = target: Acetylcholinesterase (Homo sapiens, UniProt P22303); assay: Binding affinity to human AChE
# [10] = Ratio of Ki for fetal bovine serum AChE to Ki for horse BuChE
# [11] = target: T4, Acetylcholinesterase
# Cholinesterase (Mus musculus, UniProt Q03311), sequence (Q03311 whole entry): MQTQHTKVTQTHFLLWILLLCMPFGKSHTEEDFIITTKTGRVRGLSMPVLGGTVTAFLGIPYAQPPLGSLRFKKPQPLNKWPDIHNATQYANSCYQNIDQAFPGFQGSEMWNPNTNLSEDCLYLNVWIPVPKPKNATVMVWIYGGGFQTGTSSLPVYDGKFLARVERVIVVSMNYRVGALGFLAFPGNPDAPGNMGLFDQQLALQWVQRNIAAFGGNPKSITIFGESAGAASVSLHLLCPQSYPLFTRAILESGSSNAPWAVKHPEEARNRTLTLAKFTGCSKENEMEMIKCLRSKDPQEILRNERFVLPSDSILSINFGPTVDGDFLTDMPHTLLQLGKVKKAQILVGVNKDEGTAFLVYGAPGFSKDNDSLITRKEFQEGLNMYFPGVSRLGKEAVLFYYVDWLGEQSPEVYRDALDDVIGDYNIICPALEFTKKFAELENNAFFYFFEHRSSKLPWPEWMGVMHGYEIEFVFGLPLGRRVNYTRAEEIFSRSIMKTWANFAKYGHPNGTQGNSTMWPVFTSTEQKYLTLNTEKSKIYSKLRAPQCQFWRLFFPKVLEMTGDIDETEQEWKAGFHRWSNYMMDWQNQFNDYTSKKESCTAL
# T4 sequence (P04058 whole entry): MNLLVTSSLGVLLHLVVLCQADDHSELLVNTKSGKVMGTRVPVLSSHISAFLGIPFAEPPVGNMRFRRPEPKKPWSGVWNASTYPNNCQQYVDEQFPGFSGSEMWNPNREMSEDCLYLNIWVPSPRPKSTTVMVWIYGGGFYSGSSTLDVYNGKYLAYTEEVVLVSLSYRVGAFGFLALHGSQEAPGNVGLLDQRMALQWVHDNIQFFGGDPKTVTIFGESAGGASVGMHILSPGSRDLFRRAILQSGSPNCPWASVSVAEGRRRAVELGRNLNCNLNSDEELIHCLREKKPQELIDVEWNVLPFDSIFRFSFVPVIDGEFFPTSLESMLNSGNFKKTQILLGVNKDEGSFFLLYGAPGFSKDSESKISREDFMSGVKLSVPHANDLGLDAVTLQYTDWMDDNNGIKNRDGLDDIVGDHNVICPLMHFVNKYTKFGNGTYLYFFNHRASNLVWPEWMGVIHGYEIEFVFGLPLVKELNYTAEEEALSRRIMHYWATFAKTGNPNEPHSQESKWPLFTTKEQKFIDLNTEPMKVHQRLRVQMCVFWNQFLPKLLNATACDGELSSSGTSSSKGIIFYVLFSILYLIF
# Cholinesterase (Equus caballus, UniProt P81908), sequence (P81908 whole entry): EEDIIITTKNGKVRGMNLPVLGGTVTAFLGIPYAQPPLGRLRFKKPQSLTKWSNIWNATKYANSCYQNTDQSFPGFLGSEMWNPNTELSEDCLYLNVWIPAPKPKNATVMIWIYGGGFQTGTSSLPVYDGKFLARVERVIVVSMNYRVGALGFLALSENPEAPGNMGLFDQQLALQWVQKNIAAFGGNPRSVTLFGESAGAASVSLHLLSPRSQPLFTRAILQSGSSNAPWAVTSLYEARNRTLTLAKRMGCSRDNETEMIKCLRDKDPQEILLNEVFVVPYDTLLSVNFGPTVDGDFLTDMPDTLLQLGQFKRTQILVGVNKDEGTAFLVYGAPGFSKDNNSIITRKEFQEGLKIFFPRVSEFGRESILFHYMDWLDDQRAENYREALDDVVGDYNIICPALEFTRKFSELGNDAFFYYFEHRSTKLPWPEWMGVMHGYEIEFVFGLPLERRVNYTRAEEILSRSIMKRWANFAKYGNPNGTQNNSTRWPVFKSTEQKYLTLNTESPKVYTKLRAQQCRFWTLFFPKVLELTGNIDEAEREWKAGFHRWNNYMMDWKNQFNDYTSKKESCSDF
# Butyrylcholinesterase, sequence (Q9JKC1 whole entry): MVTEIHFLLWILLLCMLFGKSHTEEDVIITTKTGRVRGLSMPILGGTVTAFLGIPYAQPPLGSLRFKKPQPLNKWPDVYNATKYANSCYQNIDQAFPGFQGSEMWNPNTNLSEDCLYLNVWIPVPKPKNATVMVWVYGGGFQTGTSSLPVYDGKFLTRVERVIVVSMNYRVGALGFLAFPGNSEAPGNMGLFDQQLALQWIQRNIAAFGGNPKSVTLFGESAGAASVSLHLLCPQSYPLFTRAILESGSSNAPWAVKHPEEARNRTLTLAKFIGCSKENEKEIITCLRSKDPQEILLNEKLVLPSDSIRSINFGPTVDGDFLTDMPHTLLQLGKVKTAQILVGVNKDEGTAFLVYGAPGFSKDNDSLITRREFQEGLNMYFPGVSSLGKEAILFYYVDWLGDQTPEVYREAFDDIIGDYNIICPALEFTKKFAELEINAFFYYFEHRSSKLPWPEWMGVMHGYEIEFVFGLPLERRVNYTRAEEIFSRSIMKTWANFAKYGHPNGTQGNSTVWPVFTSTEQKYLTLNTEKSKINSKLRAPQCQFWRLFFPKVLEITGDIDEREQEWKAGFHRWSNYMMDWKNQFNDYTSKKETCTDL
# Acetylcholinesterase (Homo sapiens, UniProt P22303), sequence (P22303 whole entry): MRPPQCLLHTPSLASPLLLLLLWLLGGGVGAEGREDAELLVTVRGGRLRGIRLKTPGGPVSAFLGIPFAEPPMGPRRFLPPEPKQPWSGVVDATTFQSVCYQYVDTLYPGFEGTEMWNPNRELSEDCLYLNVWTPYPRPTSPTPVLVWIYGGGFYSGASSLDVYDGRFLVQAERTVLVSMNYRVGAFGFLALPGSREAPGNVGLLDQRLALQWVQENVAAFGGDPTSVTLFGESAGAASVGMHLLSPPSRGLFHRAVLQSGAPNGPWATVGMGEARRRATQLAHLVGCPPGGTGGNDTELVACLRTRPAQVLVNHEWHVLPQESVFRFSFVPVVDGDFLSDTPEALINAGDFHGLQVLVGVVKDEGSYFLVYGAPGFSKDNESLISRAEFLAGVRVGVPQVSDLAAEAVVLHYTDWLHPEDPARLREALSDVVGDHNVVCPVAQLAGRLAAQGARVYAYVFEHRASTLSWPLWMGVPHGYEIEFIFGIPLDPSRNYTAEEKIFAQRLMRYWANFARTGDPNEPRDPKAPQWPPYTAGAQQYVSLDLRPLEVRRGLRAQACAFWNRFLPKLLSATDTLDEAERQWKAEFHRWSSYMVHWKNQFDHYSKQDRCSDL
structure (smiles),measurement,setting,value
C[N+](C)(C)CCCCCCCCCC[n+]1c(-c2ccccc2)cc(N)c2ccc3ccc(N)cc3c21,pKd,[1],3.80
same,pKd,[2],4.10
NCCCCCCCCNc1c2c(nc3ccccc13)CCCC2,pIC50,[3],8.82
c1ccc2c(c1)NC1CCCCC1=C2NCCCCCCCCNC1CCNC2CCCCC21 (stereo unspecified),pIC50,[3],8.06
same,pIC50,[4],6.96
C=CC[N+](C)(C)c1ccc(CCC(=O)CCc2ccc([N+](C)(C)CC=C)cc2)cc1,pKi,[5],7.24
c1ccc2c(NCCCCCCCNc3c4c(nc5ccccc35)CCCC4)c3c(nc2c1)CCCC3,pKi,[6],8.70
Nc1ccc2c(c1)c(-c1ccccc1)[n+](CCCCCCc1cn(CCNc3c4c(nc5ccccc35)CCCC4)nn1)c1cc(N)ccc21,pKi,[7],9.34
Nc1ccc2c(c1)c(-c1ccccc1)[n+](CCCCCCc1cnnn1CCNc1c3c(nc4ccccc14)CCCC3)c1cc(N)ccc21,pKi,[7],9.14
CCN(C)C(=O)Oc1cccc([C@H](C)N(C)C)c1 [RIVASTIGMINE],Ki,[8],0.033 M⁻¹ s⁻¹
CCC1=CC2Cc3nc4cc(Cl)ccc4c(N)c3[C@@H](C1)C2 [HUPRINE X],pKi,[9],9.17
CC[N+](CC)(CCNC(=O)C(=O)NCC[N+](CC)(CC)Cc1ccccc1Cl)Cc1ccccc1Cl [AMBENONIUM],pKd,[1],4.34
same,pKd,[2],4.27
CN(CCCNc1c2c(nc3ccccc13)CCCC2)CCCSc1c2c(nc3ccccc13)CCCC2,Ratio Ki,[10],2.17
same,pKi,[6],8.38
CCc1ccccc1NC(=O)Oc1ccc2c(c1)[C@]1(C)CCN(C)O[C@@H]1N2C [GANSTIGMINE],pIC50,[11],5.29
